Read-outs that look alike come from different tables or passages of the source.
Assays:
[1] = target: smooth muscle angiotensin II receptor; assay: Assay A: Angiotensin II Binding Activity (displacement of 125I-AII, rat uterine membrane preparation); settings: 50% displacement of specifically bound 125I-AII; rat uterine membranes; 25° C., 60 min
Procedure: Assay A: Angiotensin II Binding Activity
Compounds of the invention were tested for ability to bind to the smooth muscle angiotensin II receptor using a rat uterine membrane preparation. […] Other chemicals were obtained from Sigma Chemical Co. This assay was carried out according to the method of Douglas et al [Endocrinology, 106, 120-124 (1980)]. Rat uterine membranes were prepared from fresh tissue. All procedures were carried out at 4° C. Uteri were stripped of fat and homogenized in phosphate-buffered saline at pH 7.4 containing 5 mM EDTA. The homogenate was centrifuged at 1500×g for 20 min., and the supernatant was recentrifuged at 100,000×g for 60 min. The pellet was resuspended in buffer consisting of 2 mM EDTA and 50 mM Tris-HCl (pH 7.5) to a final protein concentration of 4 mg/ml. […] The reaction was initiated by the addition of membrane protein and the mixture was incubated at 25° C. for 60 min. The incubation was terminated with ice-cold 50 mM Tris-HCl (pH 7.5) and the mixture was filtered to separate membrane-bound labelled peptide from the free ligand. The incubation tube and filter were washed with ice-cold buffer. Filters were assayed for radioactivity in a Micromedic gamma counter. Nonspecific binding was defined as binding in the presence of 10 μM of unlabelled AII. Specific binding was calculated as total binding minus nonspecific binding. […] Binding data were aralyzed by a nonlinear least-squares curve fitting program.

[2] = system: rabbit aortic rings; assay: Assay B: In Vitro Vascular Smooth Muscle-Response for AII (antagonist activity in rabbit aortic rings); assay type: cell-based, rabbit (male New Zealand white); settings: Oryctolagus cuniculus, rabbit aorta rings, antagonist at 10^-5 M, read-out: PA2 (converted)
Procedure: Assay B: In Vitro Vascular Smooth Muscle-Response for AII The compounds of the invention were tested for antagonist activity in rabbit aortic rings. Male New Zealand white rabbits (2-2.5 kg) were sacrificed using an overdose of pentobarbital and exsanguinated via the carotid arteries. The thoracic aorta was removed, cleaned of adherent fat and connective tissue and then cut into 3-mm ring segments. The endothelium was removed from the rings by gently sliding a rolled-up piece of filter paper into the vessel lumen. The rings were then mounted in a water-jacketed tissue bath, maintained at 37° C., between moveable and fixed ends of a stainless steel wire with the moveable end attached to an FTO3 Grass transducer coupled to a Model 7D Grass Polygraph for recording isometric force responses. […] The preparations were equilibrated for one hour before approximately one gram of passive tension was placed on the rings. Angiotensin II concentration-response curves were then recorded (3×10^-10 to 1×10^-5 M). Each concentration of AII was allowed to elicit its maximal contraction, and then AII was washed out repeatedly for 30 minutes before rechallenging with a higher concentration of AII. Aorta rings were exposed to the test antagonist at 10^-5 M for 5 minutes before challenging with AII. Adjacent segments of the same aorta ring were used for all concentration-response curves in the presence or absence of the test antagonist. The effectiveness of the test compound was expressed in terms of pA2 values and were calculated according to H. O. Schild [Br. J. Pharmacol. Chemother., 2, 189-206 (1947)]. […] Each test antagonist was evaluated in aorta rings from two rabbits.

[3] = system: AII pressor response; assay: Assay C: In Vivo Intraduodenal Pressor Assay Response for AII Antagonists; design: species or system rat (male Sprague-Dawley); settings: rats; for Inhibition: percent inhibition of AII (30 ng/kg i.v.) pressor response; for Duration: time from peak percent inhibition to 50% of peak
Procedure: Assay C: In Vivo Intraduodenal Pressor Assay Response for AII Antagonists
Male Sprague-Dawley rats weighing 225-300 grams were anesthetized with Inactin (100 mg/kg, i.p.) and catheters were implanted into the trachea, femoral artery, femoral vein and duodenum. Arterial pressure was recorded from the femoral artery catheter on a Gould chart recorder (Gould, Cleveland, Ohio). The fe:moral vein catheter was used for injections of angiotensin II, mecamylamine and atropine. The tracheal cathete'r allows for airway patency, and the duodenal catheter was used for intraduodenal (i.d.) administration of test compounds. After surgery, the rats were allowed to equilibrate for 30 minutes. Mecamylamine (3 mg/kg, 0.3 ml/kg) and atropine (400 ug/kg, 0.3 ml/kg) were then given i.v. to produce ganglion blockade. These compounds were administered every 90 minutes throughout the test procedure. Angiotensin II was given in bolus does i.v. (30 ng/kg in saline with 0.5% bovine serum albumin, 0.1 ml/kg) every 10 minutes three times or until the increase in arterial pressure produced was within 3 mmHg for two consecutive AII injections. The last two AII injections were averaged and were taken as the control AII pressor response. Ten minutes after the final control AII injection, the test compound (dissolved in sodium bicarbonate) was administered i.d. at a dose of 30 or 100 mg/kg in a volume of 0.2 ml. Angiotensin II injections were then given 5, 10, 20, 30, 45, 60, 75, 90, and 120 minutes after administration of the test compound and response of arterial pressure was monitored. The response to AII was calculated as percent of the control response and then the percent inhibition is calculated as 100 minus the percent control response. Duration of action of a test compound was defined as the time from peak percent inhibition to 50% of peak. One compound at one dose was tested in each rat. Each test compound was tested in two rats and the values for the two rats were averaged.

[4] = system: angiotensin II receptor; settings: cited from earlier work; for angiotensin II antagonist activity: binding experiments, functional assays and in vivo tests, literature
[5] = only printed value, or first of two printed values

Structure (SMILES) | IC50 [1] [nM] | Kb [2, 5] [nM] | Kb ([2]; second of two values) [nM] | further results
CCCCc1nc(CCC)n(Cc2ccc(-c3ccccc3-c3nnn[nH]3)cc2)n1 [Example 15, 5-[4'-[(3-butyl-5-propyl-1H-1,2,4-triazol-1-yl)methyl]-[1,1'-biphenyl]-2-yl]-1H-tetrazole] | 16 | 4.9 | 5.01 | –
CCCCc1nc(Cl)nn1Cc1ccc(-c2ccccc2-c2nnn[nH]2)cc1 [Example 7] | 84 | 9.33 | – | –
CCCCc1nc(Cl)n(Cc2ccc(-c3ccccc3-c3nnn[nH]3)cc2)n1 [Example 9] | 700 | 40.7 | – | Inhibition ([3]; 30 mg/kg i.d.): 100%; Duration ([3]; 30 mg/kg i.d.): 230 min
CCCCc1nc(CCC(C)C)nn1Cc1ccc(-c2ccccc2-c2nnn[nH]2)cc1 [Example 17, 5-[4'-[(5-butyl-3-isopentyl-1H-1,2,4-triazol-1-yl]methyl)[1,1'-biphenyl]-2-yl]-1H-tetrazole] | 4 | 2.29 | 3.98 | –
CCCCc1nc(Cl)c(CC(=O)O)n1Cc1ccccc1Cl [2-n-butyl-4-chloro-1-(2-chlorobenzyl)imidazole-5-acetic acid] | – | – | – | angiotensin II antagonist activity [4]: specific competitive angiotensin II antagonist activity
CCCCc1nc(CCCC)n(Cc2ccc(-c3ccccc3C(=O)O)cc2)n1 [Example 2, 4'-[(3,5-dibutyl-1H-1,2.4-triazol-1-yl)methyl][1,1'-biphenyl]-2-carboxylic acid] | – | 33.1 | – | Inhibition ([3]; 30 mg/kg i.d.): 98%
CCCCc1nc(C(F)(F)CCC)nn1Cc1ccc(-c2ccccc2-c2nnn[nH]2)cc1 [Example 10, 5-[4'-[[5-butyl-3-(1,1-difluorobutyl)-1H-1,2,4-triazol-1-yl]methyl][1,1'-biphenyl]-2-yl]-1H-tetrazole] | 4.9 | 6.46 | 25.7 | Inhibition ([3]; 30 mg/kg i.d.): 100%; Duration ([3]; 30 mg/kg i.d.): 240 min
CCCCc1nc(CCCC)n(Cc2ccc(-c3ccccc3C(=O)NNS(=O)(=O)C(F)(F)F)cc2)n1 [Example 5, 4'-[(3,5-dibutyl-1H-1,2,4-triazol-1-yl)methyl][1,1'-biphenyl]-2-carboxylicacid, 2-[(trifluoromethyl)sulfonyl]hydrazide] | 200 | 63.1 | – | Inhibition ([3]; 100 mg/kg i.d.): 38%; Duration ([3]; 100 mg/kg i.d.): 20 to 30 min
CCCCc1nc(Cl)n(Cc2ccc(-c3ccccc3C(=O)O)cc2)n1 [Example 8, 4'-[(3-butyl-5-chloro-1H-1,2,4-triazol-1-yl)methyl][1,1'-biphenyl]-2-carboxylic acid] | 1700 | – | – | –
CCCCc1nc(Cl)nn1Cc1ccc(-c2ccccc2C(=O)O)cc1 [Example 6, 4'-[(5-butyl-3-chloro-1H-1,2,4-triazol-1-yl)methyl][1,1'-biphenyl]-2-carboxylic acid] | – | 204 | – | Inhibition ([3]; 100 mg/kg i.d.): 90%; Duration ([3]; 100 mg/kg i.d.): 120 min
CCCc1nc(CCC)n(Cc2ccc(-c3ccccc3-c3nnn[nH]3)cc2)n1 [Example 12, 5-[4'-[(3,5-dipropyl-1H-1,2,4-triazol-1-yl)methyl][1,1'-biphenyl]-2-yl]-1H-tetrazole] | 6 | 2.19 | 2.57 | –
CCCCCc1nc(CCCCC)n(Cc2ccc(-c3ccccc3-c3nnn[nH]3)cc2)n1 [Example 13, 5-[4'-[(3,5-dipentyl-1H-1,2,4-triazol-1-yl)methyl][1,1'-biphenyl]-2-yl]-1H-tetrazole] | – | 2 | 1.41 | –
CNCC(=O)N[C@@H](CCCN=C(N)N)C(=O)N[C@H](C(=O)N[C@@H](Cc1ccc(O)cc1)C(=O)N[C@H](C(=O)N[C@@H](Cc1cnc[nH]1)C(=O)N1CCC[C@H]1C(=O)N[C@@H](C)C(=O)O)C(C)C)C(C)C [Saralasin] | – | – | – | residual agonist activity ([4]; background statement): significant residual agonist activity
CCCCc1nc(CCC)nn1Cc1ccc(-c2ccccc2-c2nnn[nH]2)cc1 [Example 14, 5-[4'-[(5-butyl-3-propyl-1H-1,2,4-triazol-1-yl)methyl]-[1,1'-biphenyl]-2-yl]-1H-tetrazole] | 7.2 | 1.45 | 1.95 | –
CCCCc1nc(C(F)(F)CCC)n(Cc2ccc(-c3ccccc3-c3nnn[nH]3)cc2)n1 [Example 11, 5-[4'-[[3-butyl-5-(1,1-difluorobutyl)-1H-1,2,4-triazol-1-yl]methyl][1,1'-biphenyl]-2-yl]-1H-tetrazole] | 160 | 355 | 170 | –
CCCCc1nc(CCC(C)C)n(Cc2ccc(-c3ccccc3-c3nnn[nH]3)cc2)n1 [Example 16, 5-[4'-[(3-butyl-5-isopentyl-1H-1,2,4-triazol-1-yl)methyl]-[1,1'-biphenyl]-2-yl]-1H-tetrazole] | 6.4 | 1.12 | 0.575 | –
CCCCc1nc(Cl)c(CC(=O)O)n1Cc1ccccc1[N+](=O)[O-] [2-butyl-4-chloro-1-(2-nitrobenzyl)imidazole-5-acetic acid] | – | – | – | angiotensin II antagonist activity [4]: specific competitive angiotensin II antagonist activity
CCCCc1nc(CCCC)n(Cc2ccc(-c3ccccc3-c3nnn[nH]3)cc2)n1 [Example 3, 5-[4'-[(3,5-dibutyl-1H-1,2,4-triazol-1-yl)methyl][1,1'-biphenyl]2-yl]-1H-tetrazole] | 5.4 | 2 | – | Inhibition ([3]; 30 mg/kg i.d.): 100%; Duration ([3]; 30 mg/kg i.d.): ≥ 200 min
